Experiments:
Assay type in all cases: cell-based, murine
B16F10 melanoma cells = assay: Cell pigmentation of treated B16F10 cultures (FIG. 1); conditions: 50 μg/ml peptide, 5 days
Procedure: B16F10 melanoma cells were treated with 10-50 μg/ml peptide of SEQ ID NO: 1 (“Lf H-392-399”) for 5 days with a medium change at day 3. The cells and medium were recovered in test tubes. Kojic acid is used as […] in the cellular study due to known inhibitory effects on tyrosinase activity. IBMX is used as positive control in the cellular study due to known elevator of cellular cAMP level, […].
(§1) B16F10 murine melanoma cells were cultured in phenol red-free DMEM with 10% fetal bovine serum and penicillin/streptomycin (100 IU/50 […]) in a humidified atmosphere containing 5% CO2 in air at 37° C.

Tyrosinase [1] = assay: DOPA staining; conditions: B16F10 cells, 10 and 50 μg/ml peptide, 4 days
Procedure: as §1
DOPA staining was also performed to measure tyrosinase enzyme activity. B16F10 cells were seeded in 6-well plate (2×10^4 cells/well) and incubated overnight to allow cells to adhere. After treating with various test samples in an incubator for 4 days, cells were washed with PBS, fixation with 2% paraformaldehyde and washing with PBS a further three times, the cells were incubated with 0.1% DOPA (dissolved in 0.1 M PBS) at 37° C. for 5 hour, and observed using light microscopy (Wang et al., Exp Ther Med 6, 967-972, 2013).

Tyrosinase [2] = assay: Tyrosinase assay (cell lysate, L-DOPA); conditions: B16F10 cells, 10 and 50 μg/ml peptide, 5 days; p<0.05 compared to control
Procedure: as §1
Tyrosinase is the rate limiting enzyme in the melanogenic pathway. Its measurement provides a highly specific and sensitive indication of degree of induction of melanogenesis. Tyrosinase enzyme activity of cultured B16F10 cells were measured according to the method of (Bellei et al., J Biol Chem 285, 7288-7299, 2010) with a slight modification. Briefly, B16F10 cells were seeded in 6-well plate (2×10^4 cells/well) and incubated overnight to allow cells to adhere. After treating with various test samples in an incubator for 5 days, cells were washed with PBS and then harvested using trypsin. At the end point, the cells were solubilized with phosphate buffer (pH 6.8) containing 1% Triton X-100. The cells were then disrupted by freezing and thawing, and the lysates were clarified by centrifugation at 10,000×g for 10 min. After protein quantification and adjustment of protein concentrations with lysis buffer, 100 μl of each lysate (each containing the same amount of protein) were aliquoted into the wells of a 96-well plate, and 100 μl of 5 mM L-DOPA were then added to each well. The absorbance was measured spectrophotometrically at 475 nm following a 30-min incubation period at 37° C. […]

B16F10 cells = assay: Melanin content assay; conditions: 10 and 50 μg/ml peptide, 5 days, p<0.05 compared to control
Procedure: as §1
Melanin contents of cultured B16F10 cells were measured according to the method (Lee et al., J Invest Dermatol 124, 405-411, 2005) with a slight modification. Briefly, B16F10 cells were seeded in 6-well plate (2×10^4 cells/well) and incubated overnight to allow cells to adhere. After treating with various test samples in an incubator for 5 days, washed, trypsinized and counted before pelleting. Melanin per cell was quantified after boiling in 1 M NaOH for 1 hour and melanin content in each sample was read from a calibration curve against synthetic eumelanin at 400 nm and converted to means±SE melanin pg/cell from 3 independent experiments.

DOPA staining (Tyrosinase [1]): weaker DOPA staining
Sequence: SSASTTED (listed as Homo sapiens) [Lf H-392-399]
cell pigmentation (B16F10 melanoma cells): reduced cell pigmentation
tyrosinase activity (Tyrosinase [2]): significantly decreased tyrosinase activity
melanin synthesis (melanin content in cells and melanin secretion in culture medium) (B16F10 cells): significantly decreased melanin synthesis

Source: patent US9814663B2, “Peptide, method and composition for inhibiting melanogenesis” (RENORIGIN INNOVATION INSTITUTE CO., LTD., priority 2016, dated 2017)
